Some results are limits rather than exact numbers.

The values that follow come from patent publication EP4800014A1 (Tuojie Biotech (Shanghai) Co., Ltd., priority 2023, dated 2025).

Assay [1] deals with Ovarian cancer cells OVCAR3. Nature of the assay: Inhibitory activity against ovarian cancer cells (OVCAR3), CellTiter-Glo cell viability. The class given is cell-based. The following applies: for IC50: Homo sapiens, OVCAR-3, 120 h, OVCAR3 cells, 2500 cells/well, 5 days with compound, highest concentration 10 µM, Celltiter Glo; for inhibitory activity against OVCAR3 tumor cells compared with Janssen-01: comparison in words with the disclosed compound Janssen-01. The method, then:
Test Example 1. Assay for Inhibitory Activity of Compounds of Present Disclosure Against Ovarian Cancer Cells (OVCAR3)
Ovarian cancer cells OVCAR3 (source: Nanjing Cobioer Biosciences Co., Ltd.) were cultured in an RPMI 1640 culture medium supplemented with 10% FBS in a cell incubator at 37 °C with 5% CO2. On day one, the cells were plated in a 96-well plate at a cell concentration of 2500 cells/well and cultured overnight in an incubator. On day two, the cells were treated with compounds. The highest compound concentration was 10 µM and was diluted 3-fold to obtain 9 concentrations, and the final concentration of DMSO was 0.1%. After the cells were cultured in the incubator for another 5 days, the cell viability was measured using a Celltiter Glo assay kit (Promega) by a method consistent with that provided by the kit. Data were processed using GraphPad Prism 8, and IC50 was calculated. [formula] X: the logarithm of the compound concentration; Y: % inhibition; Bottom: bottom; Top: top; HillSlope: Hill slope. Table 2. The IC50 (nM) of the compounds of the present disclosure against OVCAR3

The target in the next assay is CDK2/CyclinE1 (Homo sapiens, UniProt P24941). Put plainly: ADP-Glo kinase assay, CDK2. The class given is biochemical. The following applies: 1 nM CDK2/CyclinE1, 15 µM ATP (Km), 0.1 mg/mL histone H1, 60 min; read-out: inhibitory activity (IC50, nM) CDK2. The protocol: (§1) An ADP-Glo kinase assay was used for testing the activity of CDKs. The compounds were diluted in 384-well plates using Echo. The starting concentration was 10 µM and was diluted 3-fold to obtain 10 concentration points, and each concentration was tested in duplicate. The final concentration of DMSO in the assay system was 1%. CDK solutions (final concentrations: 16.5 nM CDK1/CyclinB, 1 nM CDK2/CyclinE1, 16.3 nM CDK4/CyclinD1, 15.7 nM CDK6/CyclinD3, 80 nM CDK7/Cyclin H/MAT1, and 15.3 nM CDK9/Cyclin T1) prepared with assay buffer were added at 2.5 µL, and the enzymes and compounds were pre-incubated at room temperature for 10 min. […] After thorough mixing, the plates were incubated at room temperature (for 120 min for CDK1/4/9 and for 60 min for CDK2/6/7). 4 µL of the ADP-Glo reagent was added, and the plates were incubated at room temperature for 40 min. 8 µL of the kinase assay reagent was added, and the plates were incubated at room temperature for 40 min. Readings were taken using an Envision multimode microplate reader. Data were processed using GraphPad Prism 8, and IC50 was calculated. [formula] X: the logarithm of the compound concentration; Y: % inhibition; Bottom: bottom; Top: top; HillSlope: Hill slope. Table 3. The inhibitory activity (IC50, nM) of the compounds of the present disclosure against CDKs

A further assay has as its target CDK9/Cyclin T1 (Homo sapiens, UniProt P50750). Put plainly: ADP-Glo kinase assay, CDK9. The following applies: 15.3 nM CDK9/Cyclin T1, 60 µM ATP (Km), 0.2 mg/mL PDKtide, 120 min; read-out: inhibitory activity (IC50, nM) CDK9. The class given is biochemical. The protocol:
as §1

Another assay concerns the target CDK4/CyclinD1 (Homo sapiens, UniProt P11802). Put plainly: ADP-Glo kinase assay, CDK4. It is filed as biochemical. As to conditions: 16.3 nM CDK4/CyclinD1, 200 µM ATP (Km), 0.2 mg/mL DYRKtide, 120 min; read-out: inhibitory activity (IC50, nM) CDK4. The method, then: as §1
Another assay has as its target CDK1/CyclinB (Homo sapiens, UniProt P06493). Nature of the assay: ADP-Glo kinase assay, CDK1. The class given is biochemical. As to conditions: 16.5 nM CDK1/CyclinB, 20 µM ATP (Km), 0.1 mg/mL histone H1, 120 min; read-out: inhibitory activity (IC50, nM) CDK1. The method, then:
as §1

A further assay addresses CDK6/CyclinD3 (Homo sapiens, UniProt Q00534). Put plainly: ADP-Glo kinase assay, CDK6. The class given is biochemical. As to conditions: 15.7 nM CDK6/CyclinD3, 200 µM ATP (Km), 0.1 mg/mL histone H1, 60 min; read-out: inhibitory activity (IC50, nM) CDK 6. The protocol: as §1
The target of the next assay is CDK7/Cyclin H/MAT1 (Homo sapiens, UniProt P50613). Put plainly: ADP-Glo kinase assay, CDK7. It is filed as biochemical. As to conditions: 80 nM CDK7/Cyclin H/MAT1, 70 µM ATP (Km), 0.2 mg/mL MBP, 60 min; read-out: inhibitory activity (IC50, nM) CDK7. The method, then: as §1
Chain of CDK7/Cyclin H/MAT1 (P50613 whole entry, species assumed): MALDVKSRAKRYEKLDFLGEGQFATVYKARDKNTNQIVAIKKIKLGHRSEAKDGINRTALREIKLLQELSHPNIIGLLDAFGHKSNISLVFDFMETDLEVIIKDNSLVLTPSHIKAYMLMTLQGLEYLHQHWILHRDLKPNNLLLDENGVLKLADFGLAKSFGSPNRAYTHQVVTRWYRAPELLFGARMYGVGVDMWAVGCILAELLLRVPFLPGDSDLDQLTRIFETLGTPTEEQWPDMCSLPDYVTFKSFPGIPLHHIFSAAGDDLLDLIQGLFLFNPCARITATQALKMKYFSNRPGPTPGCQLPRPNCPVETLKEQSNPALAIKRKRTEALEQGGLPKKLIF
Chain of CDK7/Cyclin H/MAT1 (P51946 whole entry partner, species assumed): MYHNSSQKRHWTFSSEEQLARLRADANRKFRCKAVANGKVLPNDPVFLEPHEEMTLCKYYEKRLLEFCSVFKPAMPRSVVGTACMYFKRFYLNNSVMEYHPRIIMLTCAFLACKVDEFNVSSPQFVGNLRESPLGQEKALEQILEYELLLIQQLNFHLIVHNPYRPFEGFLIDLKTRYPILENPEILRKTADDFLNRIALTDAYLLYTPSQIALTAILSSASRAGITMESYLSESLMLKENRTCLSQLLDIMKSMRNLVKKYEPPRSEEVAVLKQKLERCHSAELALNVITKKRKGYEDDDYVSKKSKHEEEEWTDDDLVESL
Chain of CDK7/Cyclin H/MAT1 (P51948 whole entry partner, species assumed): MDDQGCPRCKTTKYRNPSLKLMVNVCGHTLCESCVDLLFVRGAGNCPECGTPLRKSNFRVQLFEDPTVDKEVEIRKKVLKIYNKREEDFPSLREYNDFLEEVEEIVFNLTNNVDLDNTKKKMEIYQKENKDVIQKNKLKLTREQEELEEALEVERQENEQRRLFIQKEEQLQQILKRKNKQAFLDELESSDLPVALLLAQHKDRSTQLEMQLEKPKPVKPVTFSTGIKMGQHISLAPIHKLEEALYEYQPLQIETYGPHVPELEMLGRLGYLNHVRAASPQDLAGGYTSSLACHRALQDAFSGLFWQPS

Chain of CDK9/Cyclin T1 (P50750 whole entry, species assumed): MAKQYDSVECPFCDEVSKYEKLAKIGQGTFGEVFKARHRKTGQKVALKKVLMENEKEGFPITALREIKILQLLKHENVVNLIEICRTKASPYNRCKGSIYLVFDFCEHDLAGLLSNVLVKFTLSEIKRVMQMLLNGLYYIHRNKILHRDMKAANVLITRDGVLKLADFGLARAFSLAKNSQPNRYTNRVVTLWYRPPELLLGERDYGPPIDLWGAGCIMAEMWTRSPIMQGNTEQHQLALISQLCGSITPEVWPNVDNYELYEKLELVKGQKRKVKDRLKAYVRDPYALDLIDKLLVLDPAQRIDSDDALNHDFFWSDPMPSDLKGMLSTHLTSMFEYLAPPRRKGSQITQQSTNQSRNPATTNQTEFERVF
Chain of CDK9/Cyclin T1 (O60563 whole entry partner, species assumed): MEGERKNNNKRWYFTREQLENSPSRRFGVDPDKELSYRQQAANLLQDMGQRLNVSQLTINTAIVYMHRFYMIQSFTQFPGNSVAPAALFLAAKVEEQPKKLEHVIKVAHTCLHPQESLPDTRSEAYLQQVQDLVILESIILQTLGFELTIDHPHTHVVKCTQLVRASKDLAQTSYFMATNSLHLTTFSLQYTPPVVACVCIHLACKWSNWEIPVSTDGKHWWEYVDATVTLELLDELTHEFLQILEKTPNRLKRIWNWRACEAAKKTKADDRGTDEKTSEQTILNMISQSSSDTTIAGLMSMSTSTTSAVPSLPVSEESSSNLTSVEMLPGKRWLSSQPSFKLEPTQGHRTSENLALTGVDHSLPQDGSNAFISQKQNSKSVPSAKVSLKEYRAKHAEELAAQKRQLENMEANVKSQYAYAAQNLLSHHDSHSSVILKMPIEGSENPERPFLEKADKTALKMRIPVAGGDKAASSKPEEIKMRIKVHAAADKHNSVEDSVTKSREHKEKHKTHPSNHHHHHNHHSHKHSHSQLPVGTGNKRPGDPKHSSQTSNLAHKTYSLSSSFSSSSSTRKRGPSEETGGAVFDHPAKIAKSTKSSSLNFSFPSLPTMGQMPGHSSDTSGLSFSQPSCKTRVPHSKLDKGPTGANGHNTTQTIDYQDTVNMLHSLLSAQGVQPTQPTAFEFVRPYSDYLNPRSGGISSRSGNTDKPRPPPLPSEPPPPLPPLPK
Chain of CDK6/CyclinD3 (Q00534 whole entry, species assumed): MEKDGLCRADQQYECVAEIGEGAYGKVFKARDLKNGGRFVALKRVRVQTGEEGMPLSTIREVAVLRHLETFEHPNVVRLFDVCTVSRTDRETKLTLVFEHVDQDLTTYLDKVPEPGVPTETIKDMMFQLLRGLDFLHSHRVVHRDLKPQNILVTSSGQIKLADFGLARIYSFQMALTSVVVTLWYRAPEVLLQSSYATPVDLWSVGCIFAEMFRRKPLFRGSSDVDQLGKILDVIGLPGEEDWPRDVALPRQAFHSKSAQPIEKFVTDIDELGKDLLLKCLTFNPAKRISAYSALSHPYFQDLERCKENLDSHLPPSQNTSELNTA
Chain of CDK6/CyclinD3 (P30281 whole entry partner, species assumed): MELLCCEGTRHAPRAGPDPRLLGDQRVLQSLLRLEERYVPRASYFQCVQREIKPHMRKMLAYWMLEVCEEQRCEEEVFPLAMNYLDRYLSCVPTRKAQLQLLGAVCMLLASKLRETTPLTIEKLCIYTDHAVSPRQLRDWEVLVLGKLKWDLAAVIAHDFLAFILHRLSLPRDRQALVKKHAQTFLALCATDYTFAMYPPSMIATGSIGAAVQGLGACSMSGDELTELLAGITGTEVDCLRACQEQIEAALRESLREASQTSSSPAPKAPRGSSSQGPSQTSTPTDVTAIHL
Chain of CDK1/CyclinB (P06493 whole entry, species assumed): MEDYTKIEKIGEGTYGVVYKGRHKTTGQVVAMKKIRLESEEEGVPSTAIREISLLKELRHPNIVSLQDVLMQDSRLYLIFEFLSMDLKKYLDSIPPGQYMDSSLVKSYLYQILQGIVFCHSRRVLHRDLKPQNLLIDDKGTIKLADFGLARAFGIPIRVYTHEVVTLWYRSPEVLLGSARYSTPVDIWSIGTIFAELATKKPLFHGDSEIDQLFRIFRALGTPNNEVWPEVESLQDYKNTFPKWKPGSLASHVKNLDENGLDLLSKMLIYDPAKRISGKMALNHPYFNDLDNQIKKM
Chain of CDK1/CyclinB (P14635 whole entry partner, species assumed): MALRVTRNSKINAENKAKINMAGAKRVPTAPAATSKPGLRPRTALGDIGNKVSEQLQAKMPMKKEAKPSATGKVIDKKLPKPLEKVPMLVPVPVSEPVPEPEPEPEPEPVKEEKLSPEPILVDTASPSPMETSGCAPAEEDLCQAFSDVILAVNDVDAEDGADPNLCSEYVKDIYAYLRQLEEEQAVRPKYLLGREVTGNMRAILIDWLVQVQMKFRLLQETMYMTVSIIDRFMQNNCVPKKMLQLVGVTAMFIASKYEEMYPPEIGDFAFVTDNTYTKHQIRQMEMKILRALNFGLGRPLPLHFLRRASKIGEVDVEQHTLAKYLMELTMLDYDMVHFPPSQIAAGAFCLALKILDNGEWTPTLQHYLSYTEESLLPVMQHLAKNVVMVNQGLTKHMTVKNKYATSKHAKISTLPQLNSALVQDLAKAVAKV
Chain of CDK4/CyclinD1 (P11802 whole entry, species assumed): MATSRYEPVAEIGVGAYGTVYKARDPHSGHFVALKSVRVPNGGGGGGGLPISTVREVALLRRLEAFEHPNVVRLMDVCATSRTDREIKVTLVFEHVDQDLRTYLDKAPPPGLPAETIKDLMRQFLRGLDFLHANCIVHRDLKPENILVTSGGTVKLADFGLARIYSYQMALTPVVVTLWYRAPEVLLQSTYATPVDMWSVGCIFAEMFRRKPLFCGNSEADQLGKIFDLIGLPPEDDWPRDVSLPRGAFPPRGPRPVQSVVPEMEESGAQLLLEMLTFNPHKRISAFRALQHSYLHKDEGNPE
Chain of CDK4/CyclinD1 (P24385 whole entry partner, species assumed): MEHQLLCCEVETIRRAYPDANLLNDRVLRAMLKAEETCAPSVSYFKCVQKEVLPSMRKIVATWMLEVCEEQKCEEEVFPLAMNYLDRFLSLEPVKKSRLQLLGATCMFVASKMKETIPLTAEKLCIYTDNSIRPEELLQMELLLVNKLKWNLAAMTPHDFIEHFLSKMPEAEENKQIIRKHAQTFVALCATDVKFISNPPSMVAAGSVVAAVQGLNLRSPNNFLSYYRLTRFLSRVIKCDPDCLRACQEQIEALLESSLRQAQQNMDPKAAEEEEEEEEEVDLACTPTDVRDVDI

For the compound `[2H]C([2H])([2H])N(C[C@@H](NC(=O)N1Cc2nc(NCc3nc(C4CC4)cs3)ncc2C[C@H]1C)c1ccccc1)C([2H])([2H])[2H]` [Compound 8, (R)-2-(((4-Cyclopropylthiazol-2-yl)methyl)amino)-N-((S)-2-(bis(methyl-d3)amino)-1-phenylethyl)-6-methyl-5,8-dihydropyrido[3,4-d]pyrimidine-7(6H)-carboxamide], the IC50 in assay [1] came out at 9.89 nM.
For the compound `C[C@@H]1Cc2cnc(NCc3ccn(C)n3)nc2CN1C(=O)[C@H]1CCN(C)C[C@@H]1c1ccccc1` [Janssen-01, reference compound], the IC50 in assay [1] is 22.2 nM.
With `[2H]C([2H])([2H])N(C[C@@H](NC(=O)N1Cc2nc(N[C@H](C)c3nc(C4CC4)cs3)ncc2C[C@H]1C)c1ccccc1)C([2H])([2H])[2H]` [Compound 10, (R)-2-(((R)-1-(4-Cyclopropylthiazol-2-yl)ethyl)amino)-N-((S)-2-(bis(methyl-d3)amino)-1-phenylethyl)-6-methyl-5,8-dihydropyrido[3,4-d]pyrimidine-7(6H)-carboxamide], in assay [1], the IC50 amounted to 19.3 nM.
In the case of `C[C@H](Nc1ncc2c(n1)CN(C(=O)N[C@H](CN(C)C)c1ccccc1)[C@H](C)C2)c1nc(C2CC2)cs1` [Compound 4, (R)-2-(((S)-1-(4-Cyclopropylthiazol-2-yl)ethyl)amino)-N-((S)-2-(dimethylamino)-1-phenylethyl)-6-methyl-5,8-dihydropyrido[3,4-d]pyrimidine-7(6H)-carboxamide], the half-maximal inhibitory concentration (IC50) in assay [1] is under 1.5 nM; at CDK2/CyclinE1 it was 571 nM; on CDK9/Cyclin T1, over 1000 nM; at CDK4/CyclinD1, over 1000 nM; on CDK1/CyclinB, over 1000 nM; on CDK6/CyclinD3 it was over 1000 nM. Further, the IC50 at CDK7/Cyclin H/MAT1 is 0.55 nM. Also, the “inhibitory activity against OVCAR3 tumor cells compared with Janssen-01” value (“inhibitory activity … compared with Janssen-01” for short) in assay [1] is listed as “significantly better than that of the disclosed compound Janssen-01”.
As for `Cc1csc([C@@H](C)Nc2ncc3c(n2)CN(C(=O)N[C@H](CN(C)C)c2ccccc2)[C@H](C)C3)n1` [Compound 2-2, (R)-N-((S)-2-(Dimethylamino)-1-phenylethyl)-6-methyl-2-(((R)-1-(4-methylthiazol-2-yl)ethyl)amino)-5,8-dihydropyrido[3,4-d]pyrimidine-7(6H)-carboxamide], the IC50 in assay [1] was 66 nM.
For `Cc1csc([C@H](C)Nc2ncc3c(n2)CN(C(=O)N[C@H](CN(C)C)c2ccccc2)[C@H](C)C3)n1` [Compound 2-1, (R)-N-((S)-2-(Dimethylamino)-1-phenylethyl)-6-methyl-2-(((S)-1-(4-methylthiazol-2-yl)ethyl)amino)-5,8-dihydropyrido[3,4-d]pyrimidine-7(6H)-carboxamide], the IC50 in assay [1] was under 1.5 nM; at CDK2/CyclinE1 it was 711 nM; on CDK9/Cyclin T1 it was over 1000 nM; on CDK4/CyclinD1, over 1000 nM; on CDK1/CyclinB it was over 1000 nM; at CDK6/CyclinD3 it was over 1000 nM. The half-maximal inhibitory concentration (IC50) at CDK7/Cyclin H/MAT1 is 0.96 nM. Further, the “inhibitory activity … compared with Janssen-01” value in assay [1] is on record as “significantly better than that of the disclosed compound Janssen-01”.
Regarding `C[C@@H]1Cc2cnc(N[C@H](C)c3nc(CO)cs3)nc2CN1C(=O)N[C@H](CN(C)C)c1ccccc1` [Compound 11-2, (R)-N-((S)-2-(Dimethylamino)-1-phenylethyl)-2-(((R)-1-(4-(hydroxymethyl)thiazol-2-yl)ethyl)amino)-6-methyl-5,8-dihydropyrido[3,4-d]pyrimidine-7(6H)-carboxamide], the IC50 in assay [1] is 190 nM.
On to `[2H]C([2H])([2H])N(C[C@@H](NC(=O)N1Cc2nc(NCc3nc(C)cs3)ncc2C[C@H]1C)c1ccccc1)C([2H])([2H])[2H]` [Compound 7], for which, in assay [1], the half-inhibitory concentration (IC50) worked out at 11.2 nM.
With `[2H]C([2H])([2H])N(C[C@@H](NC(=O)N1Cc2nc(N[C@H](C)c3nc(C)cs3)ncc2C[C@H]1C)c1ccccc1)C([2H])([2H])[2H]` [Compound 3-2, (R)-N-((S)-2-(Bis(methyl-d3)amino)-1-phenylethyl)-6-methyl-2-(((R)-1-(4-methylthiazo 1-2-yl)ethyl)amino)-5,8-dihydropyrido[3,4-d]pyrimidine-7(6H)-carboxamide], the IC50 in assay [1] is 101 nM.
Regarding `[2H]C([2H])([2H])N(C[C@@H](NC(=O)N1Cc2nc(N[C@@H](C)c3nc(C)cs3)ncc2C[C@H]1C)c1ccccc1)C([2H])([2H])[2H]` [Compound 3-1, (R)-N-((S)-2-(Bis(methyl-d3)amino)-1-phenylethyl)-6-methyl-2-(((S)-1-(4-methylthiazo 1-2-yl)ethyl)amino)-5,8-dihydropyrido[3,4-d]pyrimidine-7(6H)-carboxamide], in assay [1], the IC50 was under 1.5 nM and the “inhibitory activity … compared with Janssen-01” value was “significantly better than that of the disclosed compound Janssen-01”.
Take `C[C@@H]1Cc2cnc(NCc3nc(C4CC4)cs3)nc2CN1C(=O)N[C@H](CN(C)C)c1ccccc1` [Compound 6, (R)-2-(((4-Cyclopropylthiazol-2-yl)methyl)amino)-N-((S)-2-(dimethylamino)-1-phenylethyl)-6-methyl-5,8-dihydropyrido[3,4-d]pyrimidine-7(6H)-carboxamide]: the IC50 in assay [1] is 10.7 nM.
For `C[C@H](Nc1ncc2c(n1)CN(C(=O)N[C@H](CN(C)C)c1ccccc1)[C@H](C)C2)c1nc(CO)cs1` [Compound 11-1, (R)-N-((S)-2-(Dimethylamino)-1-phenylethyl)-2-(((S)-1-(4-(hydroxymethyl)thiazol-2-yl)ethyl)amino)-6-methyl-5,8-dihydropyrido[3,4-d]pyrimidine-7(6H)-carboxamide], in assay [1], the IC50 amounted to 1.89 nM and the “inhibitory activity … compared with Janssen-01” value was “significantly better than that of the disclosed compound Janssen-01”.
On to `Cc1csc(C(C)Nc2ncc3c(n2)CN(C(=O)N[C@H](CN(C)C)c2ccccc2)[C@H](C)C3)n1` (stereo partly drawn) [Compound 2], for which, in assay [1], the IC50 came to 3.98 nM.
Consider `[2H]C([2H])([2H])N(C[C@@H](NC(=O)N1Cc2nc(N[C@@H](C)c3nc(C4CC4)cs3)ncc2C[C@H]1C)c1ccccc1)C([2H])([2H])[2H]` [Compound 9, (R)-2-(((S)-1-(4-Cyclopropylthiazol-2-yl)ethyl)amino)-N-((S)-2-(bis(methyl-d3)amino)-1-phenylethyl)-6-methyl-5,8-dihydropyrido[3,4-d]pyrimidine-7(6H)-carboxamide], for which, in assay [1], the IC50 is under 1.5 nM and the “inhibitory activity … compared with Janssen-01” value is given as “significantly better than that of the disclosed compound Janssen-01”.
Take `Cc1csc(CNc2ncc3c(n2)CN(C(=O)N[C@H](CN(C)C)c2ccccc2)[C@H](C)C3)n1` [Compound 1]: the IC50 in assay [1] is 10.2 nM.
Take `C[C@@H]1Cc2cnc(N[C@H](C)c3nc(C4CC4)cs3)nc2CN1C(=O)N[C@H](CN(C)C)c1ccccc1` [Compound 5, (R)-2-(((R)-1-(4-Cyclopropylthiazol-2-yl)ethyl)amino)-N-((S)-2-(dimethylamino)-1-phenylethyl)-6-methyl-5,8-dihydropyrido[3,4-d]pyrimidine-7(6H)-carboxamide]: the IC50 in assay [1] amounted to 17.5 nM.
